Measurements: patent publication EP0863769B1 (priority 1996, dated 1998)

Experiments:
Assay type in all cases: binding, Influenza Viren
Conditions in all cases: read-out: Affinität der Bindung an Virus, Kaff
X31 (A/Aichi/2/68) = biological target: X31 (A/Aichi/2/68)
A/England/321/77 = biological target: A/England/321/77
A/USSR/3/85 = biological target: A/USSR/3/85
A/Sichuan/1/87 = biological target: A/Sichuan/1/87
A/FW/1/50 = biological target: A/FW/1/50
A/USSR/90/77 = biological target: A/USSR/90/77
A/Chile/1/83 = biological target: A/Chile/1/83
B/USSR/100/83 = biological target: B/USSR/100/83
B/Ann Arbor/1/86 = biological target: B/Ann Arbor/1/86
B/Yamagata/11/88 = biological target: B/Yamagata/11/88

Q: With “Poly-N-(2-Hydroxyethyl)-acrylamid mit 20% mol. 6SLN [6SLN-PAA]” as the substance, how does the Kd (X31 (A/Aichi/2/68)) read?
A: 3000 nM

Q: What about the Kd (A/England/321/77) of the same substance?
A: 10 nM

Q: What about the Kd (A/USSR/3/85) of the same substance?
A: 100 nM

Q: What about the Kd (A/Sichuan/1/87) of the same substance?
A: 100 nM

Q: And the Kd (A/FW/1/50)?
A: 3000 nM

Q: What about the Kd (A/USSR/90/77) of the same substance?
A: 300 nM

Q: What about the Kd (A/Chile/1/83) of the same substance?
A: 6000 nM

Q: And the Kd (B/USSR/100/83)?
A: 2000 nM

Q: What about the Kd (B/Ann Arbor/1/86) of the same substance?
A: 3000 nM

Q: And the Kd (B/Yamagata/11/88)?
A: 100000 nM
